Reference: patent US20090022803A1, “Oral Formulations For Delivery of Catecholic Butanes Including Ndga Compounds” (priority 2005, published 2009)

System: HeLa cells
Assay: Cell proliferation and cell death after 72 hr treatment, trypan blue exclusion
Type: cell-based, human
Conditions: CPE formulation, lots EM1001 and EM1002
Procedure: M4N in 10% (w/v) HP-β-CD and 25% (v/v) PEG 300 (hereafter, the “CPE formulation”), M4N in 30% (w/v) HP-β-CD and 25% (v/v) PEG 300 (hereafter, the “CPE 25/30 formulation”) and M4N in 27% (w/v) HP-β-CD and 33% (v/v) PEG 300 (hereafter, the “CPE 33/27 formulation”) was tested for their effects on cell death and proliferation on two different tumor cell lines: HeLa, an HPV-18 positive human cervical cancer cell line, and C-33A, an HPV-negative human cervical cancer cell line. M4N in DMSO was also tested in parallel. Both tumor cell lines were treated with increasing amounts of M4N: 0 μM, 20 μM, 40 μM, 60 μM and 80 μM, for 72 hr with the DMSO or the CPE formulation. […] After 72 hr of treatment or no treatment, the total number of cells and the number of live cells in each sample were counted, using the trypan blue exclusion method. The cell proliferation rate and the percentage of dead cells in each sample were analyzed. […]
Various lots of M4N were tested to show the effectiveness of the drug of different lots. […] After 72 hr of treatment or no treatment, the total number of cells and the number of live cells in each sample were counted, using the trypan blue exclusion method. The cell proliferation rate and the percentage of dead cells in each sample were analyzed.

COc1ccc(C[C@@H](C)[C@@H](C)Cc2ccc(OC)c(OC)c2)cc1OC [Formulation M4N, meso-1,4-bis(3,4-dimethoxyphenyl)-2,3-dimethylbutane]
effectiveness of different lots of M4N: remains the same
